Consider four compounds from patent US7884247B2, “Salt of dimethylaminomethyl-phenyl-cyclohexane and crystalline forms thereof” (Gruenenthal GmbH, priority 2005, dated 2011).

Data set [1] can be described thus: Water absorption of maleate and hydrochloride by DVS (Example E8, comparison). The data set is classed as physicochemical. The conditions noted are these: 25° C. As to the method:
Water absorption is determined by means of dynamic water vapour absorption (Dynamic Vapour Sorption, DVS) using apparatus DVS-1 from Surface Measurement System Ltd. The sample is placed in a platinum crucible at the tip of a microchemical balance. Then the sample is firstly equilibrated at 50% relative atmospheric humidity and then subjected to a predefined measuring program. The temperature is 25° C. The change in weight of the sample is determined after a stepwise increase in relative atmospheric humidity by 10% steps up to 90%.

Data set [2] in a line: Damp storage and drying of maleate and hydrochloride (XRD, DSC, dry weight, Karl-Fischer water content). The class given is physicochemical. The note with it: for Change in crystalline form by X-ray diffraction pattern: after damp storage (25° C., 75% and 95% R.H., 7 days) and drying (50° C., vacuum, 7 days). As to the method:
Maleate and hydrochloride according to Example E8 are stored firstly at 25° C. and 75% and 95% relative atmospheric humidity for 7 days and thereafter are dried for 7 days in the drying cabinet at 50° C. under a vacuum. Before storage begins, X-ray diffraction patterns (XRD) are recorded, DSC performed to determine transition points (Tp), dry weight (DW) and the Karl-Fischer water content (WC) are determined and the same values again after damp storage and drying. The X-ray diffraction patterns show no change in crystalline forms A and D after damp storage and drying. The initial vales for the hydrochloride are Tp=116.27° C., DW=6.35% and WC 8.00%. The initial values for the maleate are Tp=170.4° C. and 179.85° C., DW=0 and WC=0.2%. The results are given in Tables 3 (75% relative atmospheric humidity) and 4 (95% relative atmospheric humidity).

Data set [3] can be described thus: General properties stated in the description (solubility, hygroscopicity).
Data set [4] is described as follows: Storage under elevated atmospheric humidity, samples investigated by Raman spectroscopy. The class given is physicochemical. The conditions noted are these: room temperature, 75% relative atmospheric humidity. An excerpt: The amorphous form according to Example B1 is stored at room temperature and 75% relative atmospheric humidity and samples are investigated after 2 days, 1, 2, 3, 4 and 8 weeks using Raman spectroscopy. […] The same mixture is still observed after 8 weeks.
The maleate produced according to Example A1 is stored at room temperature and 75% relative atmospheric humidity and samples are investigated after 3 days, 1, 2, 3, 4, 8 and 10 weeks using Raman spectroscopy.
The crystalline form B produced according to Example D1 is stored at room temperature and 75% relative atmospheric humidity and samples are investigated after 3 days, 1, 2, 3, 4 and 8 weeks using Raman spectroscopy.
FT Raman spectra are recorded using a Bruker RFS 100 FT-Raman system, which is operated with an Nd:YAG laser (wavelength 1064 nm) and a germanium detector cooled with liquid nitrogen. For each sample, 64 scans are accumulated with a resolution of 2 cm^−1. In general, a laser power of 100 mW is used.

Data set [5] can be described thus: Stability under grinding conditions (trituration, ball mill). The data set is classed as physicochemical. As to the method: The maleate produced according to Example A1 is triturated with a pestle in a mortar for 5 minutes. […] Amorphous fractions are not observed.
Crystalline form B according to Example D1 is triturated with a pestle in a mortar for 5 minutes.
The maleate produced according to Example A1 is introduced into an agate ball mill (Retsch MM200 mixing mill with 5 mm agate ball) and ground at 20 Hz and room temperature for 180 minutes. […] Amorphous fractions are not observed.
The procedure is carried out in accordance with Example E4c) with crystalline form B according to Example D1.

Data set [6] can be described thus: Stability under pressure (tablet pressing). The class given is physicochemical. The conditions noted are these: tablet press, vacuum, 100 MPa, 60 minutes. On the procedure:
The maleate produced according to Example A1 is introduced into a tablet press and pressed under a vacuum at a pressure of 100 MPa for 60 minutes to form a tablet.
The procedure is carried out in accordance with Example E5a) with crystalline form B according to Example D1.

Data set [7] can be described thus: Water absorption by Dynamic Vapour Sorption (Example E6). The class given is physicochemical. The conditions noted are these: 25° C.; for Crystalline form at the end of the DVS measuring cycle: maleate; for Water absorption: DVS. On the procedure:
Water absorption is determined by means of dynamic water vapour absorption (Dynamic Vapour Sorption, DVS) using apparatus DVS-1 from Surface Measurement System Ltd. The sample is placed in a platinum crucible at the tip of a microchemical balance. Then the sample is firstly equilibrated at 50% relative atmospheric humidity and then subjected to a predefined measuring program. The temperature is 25° C. The change in weight of the sample is determined.

The nature of data set [8]: Stability at elevated temperature in open and closed vessels (HPLC, FT Raman). The data set is classed as physicochemical. As to the method:
The crystalline forms are stored in open and closed vessels and, after a predetermined time, possible changes are measured chromatographically (HPLC) as stability parameters.

Data set [9] in a line: Storage of amorphous form at room temperature and 20% or 90% atmospheric humidity for 24 hours. The class given is physicochemical. The note with it: 20 mg, room temperature.
Setting [10] is: 75% R.H. storage, then dried 7 days at 50° C. under vacuum.
Setting [11] is: 95% R.H. storage, then dried 7 days at 50° C. under vacuum.
Where [12] appears, read: after damp storage, 25° C., 75% relative atmospheric humidity, 7 days.
The mark [13] stands for this setting: after damp storage, 25° C., 95% relative atmospheric humidity, 7 days.
Setting [14] is: 40° C./75% R.H., 1 week, maleate.
[15] abbreviates: 60° C. (closed), 1 week, maleate.
Where [16] appears, read: 60° C. (closed), 4 weeks, maleate.
[17] abbreviates: 60° C./75% R.H., 4 weeks, maleate.

For `CN(C)C[C@@H]1CCCC[C@H]1c1cccc(O)c1.Cl` [Hydrochloride, (+)-(1R,2R)-3-[2-(dimethylamino)methyl-(cyclohex-1-yl)]-phenol hydrochloride], the Water absorption altogether result in data set [1] (further increase to 90% relative atmospheric humidity) is reported as “approx. 5 wt. %”. The Water absorption entry in data set [1] (relative atmospheric humidity increased to approx. 75%) is on record as “approx. 2 wt. %”. In addition, the “Water released on desorption altogether” value in [1] (relative atmospheric humidity lowered in 10% steps) is 8.5%. In data set [2] (setting [10]), this compound gave a DW of 6.12%, a Tp of 113.83 °C and a WC of 6.00%. Besides, in data set [2] (setting [11]), the DW is on record as 6.74, the Tp came out at 114.47 °C and the WC was 6.60%. Also, in [2], the “Change in crystalline form by X-ray diffraction pattern” value is “no change”. In data set [2] (setting [12]), this compound displayed a DW of 5.92%, a Tp of 116.22 °C and a WC of 8.50%. Also, in data set [2] (setting [13]), the DW stood at 7.84%, the Tp was 116.52 °C and the WC worked out at 8.50%. Also, in data set [2] (initial value, before storage), the “DW (dry weight)” value amounted to 6.35%; the “Tp (transition point, DSC)” value came to 116.27 °C; the “WC (Karl-Fischer water content)” value is 8.00%. Further, in data set [3], the Hygroscopicity entry is listed as “decidedly hygroscopic”.
As for `CN(C)C[C@@H]1CCCC[C@H]1c1cccc(O)c1.O=C(O)/C=C\C(=O)O` [Crystalline form A, (+)-(1R,2R)-3-[2-(dimethylamino)methyl-(cyclohex-1-yl)]-phenol maleate], in [4] (after 10 weeks), the “Crystalline form found by Raman spectroscopy after storage” value (“Crystalline form found” below) is given as “virtually unchanged”. The “Amorphous fractions after grinding” value in data set [5] (agate ball mill, 20 Hz, room temperature, 180 minutes) is given as “not observed”. In [5] (agate ball mill, 20 Hz, room temperature, 180 minutes, listed as Example A1, maleate), the “Crystalline form after grinding” value is reported as “unchanged form”. Moreover, in [5] (pestle in a mortar, 5 minutes), the “Amorphous fractions after trituration” value is “not observed”. The “Crystalline form after trituration” value in data set [5] (pestle in a mortar, 5 minutes, listed as Example A1, maleate) is reported as “unchanged form”. Also, the “Crystalline form after tablet pressing” value in data set [6] (listed as Example A1, maleate) was “unchanged form”. Further, the “Crystalline form at the end of the DVS measuring cycle” value (from here on “Crystalline form at the end”) in data set [7] is given as “unchanged crystalline form A”. For the same compound, the Water absorption result in [7] (measuring cycle) was “approx. 0.2 wt. %”; in data set [1] (relative atmospheric humidity raised in 10% steps up to 90%), 0.06%. For the same compound, the HPLC was 100.2% in data set [8] (setting [14]); 100.2% in data set [8] (setting [15]); 100.5% in [8] (setting [16]); 100.3% in data set [8] (setting [17]); 100% in [8] (−18° C. (reference), 4 weeks). Further, the “Stability at elevated temperature (summary)” value in data set [8] (storage in open and closed vessels) was “very stable with regard to chemical stability and crystal shape”. Moreover, the “Release of the absorbed moisture” value in [1] (at approx. 10% relative atmospheric humidity) is “released again completely”. For the same compound, the Tp in data set [2] (setting [10]) amounted to 165.33 °C; in data set [2] (setting [12]), 165.41 °C. Also, the WC in data set [2] (setting [10]) is listed as 0.20%; in data set [2] (setting [11]) it was 0.50%; in data set [2] (setting [12]) it was 0.20%; in data set [2] (setting [13]), 0.20%. Besides, the “Change in crystalline form by X-ray diffraction pattern” value in [2] is on record as “no change”. Also, the “DW (dry weight)” value in data set [2] (initial value, before storage) is on record as 0%. The “WC (Karl-Fischer water content)” value in [2] (initial value, before storage) came to 0.2%. Further, in data set [3], the Hygroscopicity result is given as “non-hygroscopic”. In addition, the “Solubility in polar solvents” value in [3] is “very good”.
Regarding `CN(C)C[C@@H]1CCCC[C@H]1c1cccc(O)c1.O=C(O)/C=C\C(=O)O` [Crystalline form B, (+)-(1R,2R)-3-[2-(dimethylamino)methyl-(cyclohex-1-yl)]-phenol maleate], the “Crystalline form found” value in [4] (after 8 weeks, maleate) was “virtually unchanged”. In addition, the “Crystalline form after grinding” value in [5] (agate ball mill, 20 Hz, room temperature, 180 minutes, maleate) was “mixture of crystalline forms A and B”. Moreover, the “Crystalline form after trituration” value in data set [5] (pestle in a mortar, 5 minutes, maleate) was “mixture of crystalline forms A and B”. Besides, the “Crystalline form after tablet pressing” value in data set [6] (maleate) is “mixture of crystalline forms A and B”. Further, in [7], the “Crystalline form at the end” value is “mixture of crystalline forms A and B”. In addition, the Water absorption result in [7] (measuring cycle) is “approx. 0.2 wt. %”. In addition, the “FT Raman (determination of crystalline form)” value in data set [8] (40° C./75% R.H., 1 week) was “A and B”; in data set [8] (60° C. (closed), 1 week), “A and B”; in [8] (60° C. (closed), 4 weeks) it was “A and B”; in data set [8] (60° C./75% R.H., 4 weeks) it was “A and B”; in [8] (−18° C. (reference), 4 weeks), “A and B”. Besides, the HPLC in [8] (setting [14]) was 100.3%; in data set [8] (setting [15]), 100.6%; in data set [8] (setting [16]) it was 100.9%; in [8] (setting [17]) it was 101.1%; in data set [8] (−18° C. (reference), 4 weeks), 100%. In [3], the “Solubility in polar solvents” value was “very good”.
As to `CN(C)C[C@@H]1CCCC[C@H]1c1cccc(O)c1.O=C(O)/C=C\C(=O)O` [amorphous form, (+)-(1R,2R)-3-[2-(dimethylamino)methyl-(cyclohex-1-yl)]-phenol maleate], the “Crystalline form found” value in [4] (after 8 weeks, maleate) is “same mixture”; in data set [4] (after 2 days), “mixture of crystalline forms A and B”. The “Crystalline form at the end” value in data set [7] was “mixture of crystalline forms A and B”. In addition, in [7] (up to approx. 33% relative atmospheric humidity), the Water absorption entry is “approx. 2.2 wt. %”. The “Form obtained after storage” value in data set [9] (20% atmospheric humidity) was “mixture of crystalline forms A and B”; in data set [9] (90% atmospheric humidity), “only crystalline form A”.
